Laboratory results: US9096539B2, “Substituted 4,5-dihydro-2H-benzo[e]indazole-9-carboxylates for the treatment of diabetes and related disorders” (Council of Scientific & Industrial Research, priority 2012, dated 2015)
Like-named read-outs stand apart in the source and are kept apart here.

Columns and labels:
[1] = system: sucrose loaded normoglycaemic rats; assay: Antihyperglycaemic activity on sucrose loaded normoglycaemic rats (SLM); format: in vivo, rat; conditions: for Blood Glucose Profile 0 min: 0 min (fasting baseline); for Blood Glucose Profile 0 min / Blood Glucose Profile 30 min / Blood Glucose Profile 60 min / Blood Glucose Profile 90 min / Blood Glucose Profile 120 min / % Antihyperglycaemic activity SLM: sucrose loaded normoglycaemic rats, compounds 100 mg/kg, Januvia 50 mg/kg; for Blood Glucose Profile 0 min / Blood Glucose Profile 30 min / Blood Glucose Profile 60 min / Blood Glucose Profile 90 min / Blood Glucose Profile 120 min: mean ± S.E.; for Blood Glucose Profile 30 min: 30 min post sucrose; for Blood Glucose Profile 60 min: 60 min post sucrose; for Blood Glucose Profile 90 min: 90 min post sucrose; for Blood Glucose Profile 120 min: 120 min post sucrose; for % Antihyperglycaemic activity SLM: AUC vs control, oral; for improvement in glucose tolerance: sucrose loaded normoglycemic rats, 100 mg/kg b.w., result in words
Procedure: The test compounds and standard antidiabetic drug Januvia were prepared in 1.0% freshly prepared Gum acacia.
Assessment of Test Compounds for Antihyperglycaemic Activity on Sucrose Loaded Normoglycaemic Rats—
In order to search towards the antidiabetic activity, synthetic compounds were preliminary evaluated for their effect on glucose tolerance in normal rats. It is an indirect effect of measuring antihyperglycaemic activity. Male albino rats of Wistar strain of body weight 160±20 g were selected for this study. The blood glucose of each animal was checked by glucometer using glucostrips (Accu-check) after 16 hours starvation. Animals showing blood glucose between 60 to 80 mg/dl (3.33 to 4.44 mM) were divided into groups of five to six animals in each. Rats of experimental group were administered suspension of the desired test compound orally (made in 1.0% gum acacia). The standard dose decided for Synthetic compounds is 100 mg/kg body weight. Animals of control group were given an equal amount of 1.0% gum acacia. A sucrose load (10.0 g/kg) was given to each animal orally exactly after 30 min post administration of the test sample/vehicle. Blood glucose profile of each rat was again determined at 30, 60, 90 and 120 min post administration of sucrose by glucometer. Food but not water was withheld from the cages during the course of experimentation. Quantitative glucose tolerance of each animal was calculated by area under curve (AUC) method using Prism Software. Comparing the AUC of experimental and control groups determined the percentage antihyperglycaemic activity. Statistical comparison was made by Dunnett's test.
Quantitative glucose tolerance of each animal was calculated by the area under the curve (AUC) method using Prism Software. The area under the curve of the control group and the experimental group was compared to determine the percent antihyperglycaemic activity. Statistical comparisons were performed by one-way analysis of variance (ANOVA), followed by Dunnett's multiple range test (DMRT). The results were considered statistically significant if the ‘p’ values were 0.05 or less. Results were expressed as mean±SEM.

[2] = biological target: T1, human recombinant PTP1B enzyme (Homo sapiens, UniProt P18031); assay: Protein tyrosine phosphatase-1B assay (colorimetric kit BML-AK 822); format: biochemical; conditions: for inhibition at 0.3 µM: read-out: % Inhibition at different Inhibitor concentration 0.3 μM; for inhibition at 1 µM: read-out: % Inhibition at different Inhibitor concentration 1 μM; for inhibition at 3 µM: read-out: % Inhibition at different Inhibitor concentration 3 μM; for inhibition at 5 µM: read-out: % Inhibition at different Inhibitor concentration 5 μM; for IC50: from % inhibition at 5 concentrations 0.3-10 μM
T1 construct: purchased Enzo Life Sciences, USA BML-AK 822
T1 sequence (P18031 1-322 limits assumed): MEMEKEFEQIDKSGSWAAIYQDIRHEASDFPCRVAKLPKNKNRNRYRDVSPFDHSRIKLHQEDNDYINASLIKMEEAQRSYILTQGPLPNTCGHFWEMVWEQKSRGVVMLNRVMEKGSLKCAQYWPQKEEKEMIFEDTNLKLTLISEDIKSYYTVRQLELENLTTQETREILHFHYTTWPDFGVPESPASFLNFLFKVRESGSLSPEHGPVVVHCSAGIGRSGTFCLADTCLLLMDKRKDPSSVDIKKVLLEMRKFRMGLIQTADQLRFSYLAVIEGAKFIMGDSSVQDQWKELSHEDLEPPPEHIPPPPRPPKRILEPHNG
Procedure: Assay was done according to the Kit manufacturers protocol, in brief the reaction was carried out in 96 well flat bottomed microtiter plate by the addition of assay buffer, solution of test compounds and diluted PTP1B enzyme. Enzyme reaction was initiated by addition of 50 μl of warmed 2× substrate then incubated the plate at 30° C. for 30 min. After incubation for 30 min. Reaction was terminated by addition of 25 μl of biomol red reagent and mixed thoroughly by repeated pipetting. […] Volumes and dilution of other component were accordingly as instructed in the manual provided in the kit. PTP1B phosphatase acting on the phosphopeptide substrate and release phosphate. The detection of free phosphate released is based on classic Malachite green assay. After adding biomol red to reaction wells after 30 minutes of incubation as described earlier the plate was incubated for another 20 min to develop the colour. Absorbance was recorded at 620 nm. on a microplate reader.

[3] = system: sucrose challenged STZ induced diabetic rats; assay: Antihyperglycaemic activity in sucrose challenged streptozotocin (STZ)-induced diabetic rats (STZ-S); format: in vivo, rat; conditions: compounds 100 mg/kg, Januvia 50 mg/kg; for % Antihyperglycaemic activity STZ-S 0-5 h AUC / % Antihyperglycaemic activity STZ-S 0-24 h AUC: oral; for Blood Glucose Profile 0 min (Pre treatment): 0 min pre treatment (fasting baseline)
Procedure: The test compounds and standard antidiabetic drug Januvia were prepared in 1.0% freshly prepared Gum acacia. Assessment of Test Compounds for Antihyperglycaemic Activity in Sucrose Challenged Streptozotocin STZ-Induced Diabetic Rats— Induction of Diabetes in Rats: Overnight starved male albino rats of Sprague Dawley strain were used and Diabetes was induced in the animals by single intraperitoneal injection of Streptozotocin at 60 mg/kg body weight dose prepared in 0.1M citrate buffer (pH 4.5). Fasting blood glucose level was measured by using a Glucometer (ACCU-CHEK II; […] Grouping and Treatment: […] All the diabetic animals were again divided into groups with five animals in each group. Animals of one group were regarded as the control group (orally administered 1% gum acacia) and the others were treated as the experimental groups. […] Animals of the control group were given an equal amount of 1.0% gum acacia. The standard antidiabetic drug Januvia was given to the animals at an oral dose of 50 mg/kg body weight. […] Food but not water was withheld from the cages during the course of experimentation. Percent hyperglycemic activity was determined by comparing the AUC (area under curve) of experimental groups with that of the vehicle treated control group. Quantitative glucose tolerance of each animal was calculated by the area under the curve (AUC) method using Prism Software. The area under the curve of the control group and the experimental group was compared to determine the percent antihyperglycaemic activity. Statistical comparisons were performed by one-way analysis of variance (ANOVA), followed by Dunnett's multiple range test (DMRT). […] Results were expressed as mean±SEM.

[4] = Table 5, evaluated at 10 μM concentration, read-out: % Inhibition (PTP-1B)
[5] = Table 6 dose response, 10 μM, read-out: % Inhibition at different Inhibitor concentration 10 μM

Row | Compound | Blood Glucose Profile 0 min [1] [mg/dL] | Blood Glucose Profile 30 min [1] [mg/dL] | Blood Glucose Profile 60 min [1] [mg/dL] | Blood Glucose Profile 90 min [1] [mg/dL] | Blood Glucose Profile 120 min [1] [mg/dL] | % Antihyperglycaemic activity SLM [1] [%] | improvement in glucose tolerance [1] | inhibition at 10 µM [2, 4] [%] | inhibition at 0.3 µM ([2]; Table 6 dose response) [%] | inhibition at 1 µM ([2]; Table 6 dose response) [%] | inhibition at 3 µM ([2]; Table 6 dose response) [%] | inhibition at 5 µM ([2]; Table 6 dose response) [%] | inhibition at 10 µM [2, 5] [%] | IC50 [2] [µM] | melting point [°C] | % Antihyperglycaemic activity STZ-S 0-5 h AUC [3] [%] | % Antihyperglycaemic activity STZ-S 0-24 h AUC [3] [%] | Blood Glucose Profile 0 min (Pre treatment) [3] [mg/dL] | Blood Glucose Profile 30 min (Post treatment) [3] [mg/dL] | Blood Glucose Profile 60 min (Post treatment) [3] [mg/dL] | other results
1 | COC(=O)c1c(SC)cc(-c2ccc(C)cc2)c2c1-c1cn(-c3ccccc3)nc1CC2 [compound 5, methyl 8-(methylthio)-2-phenyl-6-p-tolyl-4,5-dihydro-2H-benzo[e]indazole-9-carboxylate] | 66.2 ± 3.05 | 107.4 ± 7.76 | 104.8 ± 5.12 | 108.3 ± 3.59 | 109.8 ± 7.86 | 35.8 | significant improvement in glucose tolerance | 83.8 | 3.89 | 13.2 | 24.1 | 36.7 | 67.8 | 7.12 | 178 to 180 | 20.4 | 23.6 | 222.3 ± 9.39 | 515.6 ± 15.5 | 528.6 ± 14.4 | Blood Glucose Profile 90 min (Post treatment) [3]: 506.5 ± 14.0 mg/dL; Blood Glucose Profile 120 min (Post treatment) [3]: 459.6 ± 11.2 mg/dL; Blood Glucose Profile 180 min (Post treatment) [3]: 402.1 ± 5.58 mg/dL; Blood Glucose Profile 240 min (Post treatment) [3]: 332.5 ± 15.6 mg/dL; Blood Glucose Profile 300 min (Post treatment) [3]: 284.3 ± 16.9 mg/dL; Blood Glucose Profile 1440 min (Post treatment) [3]: 411.1 ± 13.6 mg/dL
2 | COC(=O)c1c(SC)cc(-c2cccc3ccccc23)c2c1-c1cn(-c3ccccc3)nc1CC2 [compound 6, methyl 8-(methylthio)-6-(naphthalen-1-yl)-2-phenyl-4,5-dihydro-2H-benzo[e]indazole-9-carboxylate] | 66.2 ± 2.63 | 120.0 ± 7.30 | 111.2 ± 7.30 | 110.4 ± 4.73 | 107.4 ± 4.95 | 23.5 | significant improvement in glucose tolerance | 76.9 | 0.5 | 11.2 | 16.2 | 28.8 | 62.3 | 8.12 | 182 to 184 | 29.7 | 25.7 | 222.6 ± 6.55 | 442.1 ± 18.2 | 520.0 ± 10.3 | Blood Glucose Profile 90 min (Post treatment) [3]: 464.0 ± 14.4 mg/dL; Blood Glucose Profile 120 min (Post treatment) [3]: 399.3 ± 14.0 mg/dL; Blood Glucose Profile 180 min (Post treatment) [3]: 334.0 ± 13.4 mg/dL; Blood Glucose Profile 240 min (Post treatment) [3]: 301.6 ± 18.8 mg/dL; Blood Glucose Profile 300 min (Post treatment) [3]: 277.0 ± 10.1 mg/dL; Blood Glucose Profile 1440 min (Post treatment) [3]: 405.0 ± 17.6 mg/dL
